Test results as given in PubChem BioAssay (NCI).
Values joined by “and” are separate entries in the source; they are usually repeats but may differ in a detail not shown here. Equal values may be shown once.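 Interpolation was linear, between the two tested concentrations surrounding the appropriate level; five concentrations were tested over 48 hours in 96-well plates. At the TGI there is no net growth.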

How the values were obtained:
Experiment in all cases: growth of human tumour cells (NCI), 48 h
RXF 393 renal = test system: RXF 393 renal
SNB-19 CNS = test system: SNB-19 CNS
SK-MEL-28 melanoma = test system: SK-MEL-28 melanoma
UACC-62 melanoma = test system: UACC-62 melanoma
HOP-92 NSCLC = test system: HOP-92 NSCLC
786-0 renal = test system: 786-0 renal
SF-539 CNS = test system: SF-539 CNS
PC-3 prostate = test system: PC-3 prostate
MOLT-4 leukemia = test system: MOLT-4 leukemia
SK-MEL-2 melanoma = test system: SK-MEL-2 melanoma
MDA-MB-435 = test system: MDA-MB-435
HCC-2998 colon = test system: HCC-2998 colon
SK-MEL-5 melanoma = test system: SK-MEL-5 melanoma
TK-10 renal = test system: TK-10 renal
A549 NSCLC = test system: A549 NSCLC
MALME-3M melanoma = test system: MALME-3M melanoma
HT29 colon = test system: HT29 colon
DU-145 prostate = test system: DU-145 prostate
EKVX NSCLC = test system: EKVX NSCLC

SMILES | TGI (RXF 393 renal) | TGI (SNB-19 CNS) | TGI (SK-MEL-28 melanoma) | TGI (UACC-62 melanoma) | TGI (HOP-92 NSCLC) | TGI (786-0 renal) | TGI (SF-539 CNS) | TGI (PC-3 prostate) | TGI (MOLT-4 leukemia) | TGI (SK-MEL-2 melanoma) | TGI (MDA-MB-435) | TGI (HCC-2998 colon) | TGI (SK-MEL-5 melanoma) | TGI (TK-10 renal) | TGI (A549 NSCLC) | TGI (MALME-3M melanoma) | TGI (HT29 colon) | TGI (DU-145 prostate) | TGI (EKVX NSCLC)
N#Cc1c(-c2ccc(Cl)cc2)c(C#N)c(=O)n(NS(=O)(=O)c2ccccc2)c1-c1ccccc1 | > 25 µM | > 25 µM | > 25 µM | > 25 µM | > 25 µM | > 25 µM | > 25 µM | > 25 µM | > 25 µM | > 25 µM | > 25 µM | > 25 µM | > 25 µM | > 25 µM | > 25 µM | – | – | – | –
CCCCCCCSCC(O)COC(c1ccccc1)(c1ccccc1)c1ccccc1 (stereo not drawn) | – | > 100 µM | > 100 µM | > 100 µM | > 100 µM | > 100 µM | > 100 µM | > 100 µM | > 100 µM | 52.5 µM | > 100 µM | > 100 µM | 47.9 µM | > 100 µM | > 100 µM | > 100 µM | 68.5 µM | > 100 µM | > 100 µM
C=C1C(=O)OC2/C=C(\C)C(O)/C=C\C(C)(O)CC(OC(=O)/C(C)=C/C)C12 (stereo not drawn) | 42.6 µM | 98.8 µM | 35.4 µM | 32.6 µM | 77.5 µM | 38 µM | 20.7 µM | – | 53.8 µM | 48.8 µM | – | > 100 µM | > 100 µM | > 100 µM | > 100 µM | 40.4 µM | > 100 µM | – | 77.9 µM
CC(=O)c1cccc(NC2C(N)C(NC(=O)N(C)C)(C(C)O)C(C)(O)C2(O)COC(=O)c2c(C)cccc2O)c1 (stereo not drawn) | – | 0.0992 µM and 0.936 µM | 1.04 µM and 0.532 µM | 0.119 µM | – | 0.0146 µM | < 0.001 µM | – | 0.835 µM | 0.0186 µM | 0.0157 µM | 0.00295 µM | 0.0227 µM | 0.118 µM | 0.347 µM | – | 1.08 µM and 0.113 µM | 0.0202 µM | 0.08 µM
CSC(=NCCN=C(NS(=O)(=O)c1ccc(Cl)cc1)SC)NS(=O)(=O)c1ccc(Cl)cc1 | – | > 100 µM | > 100 µM | > 100 µM | 58 µM | > 100 µM | > 100 µM | > 100 µM | > 100 µM | > 100 µM | > 100 µM | > 100 µM | – | > 100 µM | – | > 100 µM | > 100 µM | > 100 µM | > 100 µM
CCOC(=O)C12CC1(C(=O)OCC)C1CCC2C1 (stereo not drawn) | – | > 100 µM | > 100 µM | > 100 µM | 95.2 µM | > 100 µM | – | – | > 100 µM | – | – | > 100 µM | > 100 µM | > 100 µM | > 100 µM | > 100 µM | > 100 µM | – | –
COc1cc(CC2c3cc(OC)c(OC)cc3CCN2C)c(Oc2cc3c(cc2OC)-c2c(OC)c(OC)c(OC)c4c2C(C3)N(C)CC4)cc1OC (stereo not drawn) | 14.9 µM | 43.3 µM | 22.8 µM | 29.1 µM | 20.9 µM | 21.5 µM | 25.8 µM | – | > 42.5 µM | 28.8 µM | – | 13.7 µM | 13.4 µM | 29.5 µM | 30.6 µM | 6.67 µM | > 36.5 µM | – | 31.1 µM
O=C(NCc1ccccc1)c1cnc(Cl)cn1 | > 100 µM | > 100 µM | > 100 µM | > 100 µM | 55 µM | > 100 µM | > 100 µM | – | > 100 µM | > 100 µM | > 100 µM | 43.3 µM | > 100 µM | > 100 µM | > 100 µM | > 100 µM | > 100 µM | > 100 µM | > 100 µM
O=C(/C=C/c1ccc(Cl)c(Cl)c1)Oc1ccc(/C=C2\CCCCC2=O)cc1 | – | > 100 µM | > 100 µM | > 100 µM | > 100 µM | > 100 µM | > 100 µM | > 100 µM | 72.1 µM | > 100 µM | > 100 µM | > 100 µM | > 100 µM | > 100 µM | > 100 µM | – | > 100 µM | > 100 µM | > 100 µM
CCCc1c2c3ccccc3nc-2nc2ccccn12 | – | > 100 µM | > 100 µM | > 100 µM | > 100 µM | > 100 µM | > 100 µM | > 100 µM | > 100 µM | > 100 µM | > 100 µM | – | > 100 µM | > 100 µM | > 100 µM | > 100 µM | > 100 µM | > 100 µM | > 100 µM
S=C1C=C(c2ccccc2)Sc2ccccc2N1 | > 100 µM | > 100 µM | > 100 µM | > 100 µM | – | > 100 µM | – | > 100 µM | > 100 µM | – | – | – | > 100 µM | > 100 µM | > 100 µM | > 100 µM | > 100 µM | > 100 µM | > 100 µM
COC(=O)C1=C(O)C(C(=O)OC)[C@]2(O)[C@H](C(=O)OC)[C@H]1C[C@@H](c1ccc(OC)cc1)[C@H]2C(=O)OC (stereo partly drawn) | 42 µM | 79.8 µM | > 100 µM | 25.8 µM | > 100 µM | 47.3 µM | > 100 µM | – | 68.1 µM | 56.3 µM | 29 µM | 37.8 µM | 55.8 µM | > 100 µM | 62.8 µM | > 100 µM | 97.7 µM | – | > 100 µM
COc1ccc2c(c1)CC[C@@H]1C2CC[C@]2(C)C(=O)NC(=O)CC12 (stereo partly drawn) | – | > 100 µM | – | > 100 µM | > 100 µM | > 100 µM | > 100 µM | – | > 100 µM | > 100 µM | – | > 100 µM | > 100 µM | > 100 µM | > 100 µM | > 100 µM | > 100 µM | – | > 100 µM
Nc1c(C(=O)c2ccccc2)[nH]c(NCc2ccccc2)c1C(=S)Nc1ccccc1 | > 100 µM | > 100 µM | > 100 µM | > 100 µM | > 100 µM | > 100 µM | > 100 µM | – | > 100 µM | > 100 µM | > 100 µM | > 100 µM | > 100 µM | > 100 µM | > 100 µM | > 100 µM | > 100 µM | > 100 µM | > 100 µM
